# Legend:
# WDR5 [1] = target: T1, WDR5 (Homo sapiens, UniProt P61964); assay: Fluorescence Polarization (FP) binding assay
# How it was run: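 Displacement of fluorescein-labelled H3 (1-15) (30 nM, with 0.3 μM WDR5) or 9-Ala-FAM (20 nM, with 0.05 μM WDR5) in 80 mM sodium phosphate pH 6.5, 20 mM KCl, 0.008% Triton X-100. FP read at 485/528 nm (H3) or 480/540 nm (9-Ala-FAM); Kdisp from hyperbolic fit, mean of quadruplicates.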
# MV4-11 cells = assay: Cell proliferation assay (ATPlite); format: cell-based; conditions: Homo sapiens, 120 h; MV4-11 cells, five days; read-out: GI MV411 EC50
# How it was run: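 Cells seeded at 1,000/well in Alpha-MEM with 10% FBS, treated with compound over a 10-point range (top 10 μM) or DMSO. Grown five days at 37° C, 5% CO2; viability by ATPlite luminescence.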
# WDR5 [2] = target: T1, WDR5; assay: Surface Plasmon Resonance (SPR) assay; format: binding; set-up: Full length WDR5 with an N-terminal His tag and C-terminal AviTag; His tag (N); made in house; host or cells: E. coli; conditions: read-out: SPR Kd
# How it was run: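 Full-length biotinylated WDR5 (N-His, C-AviTag, E. coli) captured (~3000 RU) on streptavidin SA chip; Biacore T200. HBS-EP pH 7.4 plus 5% DMSO running buffer, 40 μl/min.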
IC50 (WDR5 [1]),EC50 (MV4-11 cells),Kd (WDR5 [2]),SMILES
14.9 nM,32.7 nM,2.48 nM,"C[C@@H]1CN(c2cc(F)c(-c3cnc(N4CCOCC4)c(C#N)c3)c(F)c2NC(=O)c2c[nH]c(=O)cc2C(F)(F)F)C[C@H](C)N1C [Example 64, N-(3-(5-cyano-6-morpholinopyridin-3-yl)-2,4-difluoro-6-((3S,5R)-3,4,5-trimethylpiperazin-1-yl)phenyl)-6-oxo-4-(trifluoromethyl)-1,6-dihydropyridine-3-carboxamide]"
10.2 nM,33.8 nM,1.51 nM,"C[C@@H]1CN(c2cc(F)c(-c3ccc(OC4CCOCC4)nc3)c(F)c2NC(=O)c2c[nH]c(=O)cc2C(F)(F)F)C[C@H](C)N1C [Example 65, N-(2,4-difluoro-3-(6-((tetrahydro-2H-pyran-4-yl)oxy)pyridin-3-yl)-6-((3S,5R)-3,4,5-trimethylpiperazin-1-yl)phenyl)-6-oxo-4-(trifluoromethyl)-1,6-dihydropyridine-3-carboxamide]"
14.1 nM,45.8 nM,2.02 nM,"C[C@@H]1CN(c2ncc(-c3c(F)cc(N4CCN(C)[C@@H](C)C4)c(NC(=O)c4ccc(F)cc4C(F)(F)F)c3F)cn2)C[C@H](C)O1 [Example 66, N-(3-(2-((2S,6R)-2,6-dimethylmorpholino)pyrimidin-5-yl)-6-((S)-3,4-dimethylpiperazin-1-yl)-2,4-difluorophenyl)-4-fluoro-2-(trifluoromethyl)benzamide Formic Acid]"
19.7 nM,101 nM,0.97 nM,"COc1cc(N2CC=C(c3c(F)cc(N4CCN(C)[C@@H](C)C4)c(NC(=O)c4c[nH]c(=O)cc4C(F)F)c3F)CC2)ncn1 [Example 67, (S)-4-(difluoromethyl)-N-(6-(3,4-dimethylpiperazin-1-yl)-2,4-difluoro-3-(1-(6-methoxypyrimidin-4-yl)-1,2,3,6-tetrahydropyridin-4-yl)phenyl)-6-oxo-1,6-dihydropyridine-3-carboxamide]"
19.5 nM,358 nM,1.37 nM,"COc1cc(N2CCC=C(c3c(F)cc(N4CCN(C)[C@@H](C)C4)c(NC(=O)c4c[nH]c(=O)cc4C(F)(F)F)c3F)C2)ncn1 [Example 68, (S)—N-(6-(3,4-dimethylpiperazin-1-yl)-2,4-difluoro-3-(1-(6-methoxypyrimidin-4-yl)-1,2,5,6-tetrahydropyridin-3-yl)phenyl)-6-oxo-4-(trifluoromethyl)-1,6-dihydropyridine-3-carboxamide]"
23.2 nM,417 nM,3.01 nM,"C[C@@H]1CN(c2cc(F)c(-c3ccnc(N4CCOCC4)c3)c(F)c2NC(=O)c2c[nH]c(=O)cc2C(F)(F)F)C[C@H](C)N1C [Example 69, N-(2,4-difluoro-3-(2-morpholinopyridin-4-yl)-6-((3S,5R)-3,4,5-trimethylpiperazin-1-yl)phenyl)-6-oxo-4-(trifluoromethyl)-1,6-dihydropyridine-3-carboxamide]"
16.5 nM,26.7 nM,0.91 nM,"C[C@@H]1CN(c2cc(F)c(-c3cnc(N(C)C)nc3)c(F)c2NC(=O)c2c[nH]c(=O)cc2C(F)(F)F)C[C@H](C)N1C [Example 70, N-(3-(2-(dimethylamino)pyrimidin-5-yl)-2,4-difluoro-6-((3S,5R)-3,4,5-trimethylpiperazin-1-yl)phenyl)-6-oxo-4-(trifluoromethyl)-1,6-dihydropyridine-3-carboxamide]"
15.1 nM,64.4 nM,1.65 nM,"C[C@@H]1CN(c2cc(F)c(-c3ccc4c(c3)OCO4)c(F)c2NC(=O)c2c[nH]c(=O)cc2C(F)(F)F)C[C@H](C)N1C [Example 71, N-(3-(benzo[d][1,3]dioxol-5-yl)-2,4-difluoro-6-((3S,5R)-3,4,5-trimethylpiperazin-1-yl)phenyl)-6-oxo-4-(trifluoromethyl)-1,6-dihydropyridine-3-carboxamide]"
18.2 nM,99.1 nM,0.7 nM,"C[C@@H]1CN(c2cc(F)c(-c3ccc4c(c3)OCCO4)c(F)c2NC(=O)c2c[nH]c(=O)cc2C(F)(F)F)C[C@H](C)N1C [Example 72, N-(3-(2,3-dihydrobenzo[b][1,4]dioxin-6-yl)-2,4-difluoro-6-((3S,5R)-3,4,5-trimethylpiperazin-1-yl)phenyl)-6-oxo-4-(trifluoromethyl)-1,6-dihydropyridine-3-carboxamide]"
16.8 nM,110 nM,1.26 nM,"C[C@@H]1CN(c2cc(F)c(-c3cnc4c(c3)OCCO4)c(F)c2NC(=O)c2c[nH]c(=O)cc2C(F)(F)F)C[C@H](C)N1C [Example 73, N-(3-(2,3-dihydro-[1,4]dioxino[2,3-b]pyridin-7-yl)-2,4-difluoro-6-((3S,5R)-3,4,5-trimethylpiperazin-1-yl)phenyl)-6-oxo-4-(trifluoromethyl)-1,6-dihydropyridine-3-carboxamide]"
16.4 nM,36.7 nM,2.12 nM,"COc1cc(N2CC=C(c3c(F)cc(N4CCN(C)[C@@H](C)C4)c(NC(=O)c4c[nH]c(=O)cc4C(F)F)c3F)C2)ncn1 [Example 74, (S)-4-(difluoromethyl)-N-(6-(3,4-dimethylpiperazin-1-yl)-2,4-difluoro-3-(1-(6-methoxypyrimidin-4-yl)-2,5-dihydro-1H-pyrrol-3-yl)phenyl)-6-oxo-1,6-dihydropyridine-3-carboxamide]"
18.5 nM,35.1 nM,1.8 nM,"COc1cc(N2CC=C(c3c(F)cc(N4CCN(C)[C@@H](C)C4)c(NC(=O)c4c[nH]c(=O)cc4C(F)(F)F)c3F)C2)ncn1 [Example 75, (S)—N-(6-(3,4-dimethylpiperazin-1-yl)-2,4-difluoro-3-(1-(6-methoxypyrimidin-4-yl)-2,5-dihydro-1H-pyrrol-3-yl)phenyl)-6-oxo-4-(trifluoromethyl)-1,6-dihydropyridine-3-carboxamide]"
21.6 nM,42 nM,1.42 nM,"COc1cc(N2CC=C(c3c(F)cc(N4CCN(C)[C@@H](C)C4)c(NC(=O)c4c[nH]c(=O)cc4C(F)(F)F)c3F)CC2)ncn1 [Example 76, (S)—N-(6-(3,4-dimethylpiperazin-1-yl)-2,4-difluoro-3-(1-(6-methoxypyrimidin-4-yl)-1,2,3,6-tetrahydropyridin-4-yl)phenyl)-6-oxo-4-(trifluoromethyl)-1,6-dihydropyridine-3-carboxamide]"
10.1 nM,108 nM,1.12 nM,"C[C@@H]1CN(c2nccc(-c3c(F)cc(N4C[C@@H](C)N(C)[C@@H](C)C4)c(NC(=O)c4c[nH]c(=O)cc4C(F)(F)F)c3F)n2)C[C@H](C)O1 [Example 77, N-(3-(2-((2S,6R)-2,6-dimethylmorpholino)pyrimidin-4-yl)-2,4-difluoro-6-((3S,5R)-3,4,5-trimethylpiperazin-1-yl)phenyl)-6-oxo-4-(trifluoromethyl)-1,6-dihydropyridine-3-carboxamide]"
14.7 nM,64.1 nM,1.16 nM,"C[C@@H]1CN(c2nccc(-c3c(F)cc(N4C[C@@H](C)N(C)[C@@H](C)C4)c(NC(=O)c4c[nH]c(=O)cc4C(F)F)c3F)n2)C[C@H](C)O1 [Example 78, 4-(Difluoromethyl)-N-(3-(2-((2S,6R)-2,6-dimethylmorpholino)pyrimidin-4-yl)-2,4-difluoro-6-((3S,5R)-3,4,5-trimethylpiperazin-1-yl)phenyl)-6-oxo-1,6-dihydropyridine-3-carboxamide]"
13.6 nM,223 nM,1.67 nM,"COc1cc(N2CCC=C(c3c(F)cc(N4CCN(C)[C@@H](C)C4)c(NC(=O)c4c[nH]c(=O)cc4C(F)F)c3F)C2)ncn1 [Example 79, (S)-4-(difluoromethyl)-N-(6-(3,4-dimethylpiperazin-1-yl)-2,4-difluoro-3-(1-(6-methoxypyrimidin-4-yl)-1,2,5,6-tetrahydropyridin-3-yl)phenyl)-6-oxo-1,6-dihydropyridine-3-carboxamide]"
23 nM,58.3 nM,1.27 nM,"C[C@H]1CN(c2cc(F)c(C3=CCN(c4ncc(F)cn4)C3)c(F)c2NC(=O)c2c[nH]c(=O)cc2C(F)(F)F)CCN1C [Example 80, (S)—N-(6-(3,4-dimethylpiperazin-1-yl)-2,4-difluoro-3-(1-(5-fluoropyrimidin-2-yl)-2,5-dihydro-1H-pyrrol-3-yl)phenyl)-6-oxo-4-(trifluoromethyl)-1,6-dihydropyridine-3-carboxamide]"
12.5 nM,44 nM,1.37 nM,"C[C@H]1CN(c2cc(F)c(C3=CCN(c4ncc(F)cn4)CC3)c(F)c2NC(=O)c2c[nH]c(=O)cc2C(F)F)CCN1C [Example 81, (S)-4-(difluoromethyl)-N-(6-(3,4-dimethylpiperazin-1-yl)-2,4-difluoro-3-(1-(5-fluoropyrimidin-2-yl)-1,2,3,6-tetrahydropyridin-4-yl)phenyl)-6-oxo-1,6-dihydropyridine-3-carboxamide]"
16 nM,52.8 nM,1.22 nM,"C[C@H]1CN(c2cc(F)c(C3=CCN(c4ncc(F)cn4)CC3)c(F)c2NC(=O)c2c[nH]c(=O)cc2C(F)(F)F)CCN1C [Example 82, (S)—N-(6-(3,4-dimethylpiperazin-1-yl)-2,4-difluoro-3-(1-(5-fluoropyrimidin-2-yl)-1,2,3,6-tetrahydropyridin-4-yl)phenyl)-6-oxo-4-(trifluoromethyl)-1,6-dihydropyridine-3-carboxamide]"

# From patent US20200385371A1 (Propellon Therapeutics Inc., priority 2017, published 2020)
